Measurements reported in patent US9617545B2, “Method for treating breast cancer by targeting breast cancer stem cell” (KYUNGPOOK NATIONAL UNIVERSITY INDUSTRY-ACADEMIC COOPERATION …, priority 2014, dated 2017).

How the values were obtained:
xenografted tumor = details: administered to an animal into which tumor has been xenografted; cited from earlier work
MCF7 and MCF7/ADR cells = test: MTT assay: cell viability against doxorubicin; type: cell-based, human; details: MCF7/ADR cells compared with MCF7 cells; doxorubicin 0, 1, 2, 10, 25 μM; 24, 48, 72 hours; FIG. 2A
Description: A human breast cancer maternal cell line, MCF-7 (Korean Cell Line Bank), was continuously exposed to 1 μM of a drug, doxorubicin (Sigma). In this case, the maternal cell line was cultured in […] for at least one week to establish a breast cancer cell MCF7/ADR having induced drug resistance. Here, the cell culture was performed at 37° C. and 5% CO^2 in a DMEM medium (Hyclon, Logan, Utah) supplemented with 10% FBS and 1% penicillin.
To evaluate cytotoxicity of the anti-cancer agent (doxorubicin), a cell viability assay was performed using an MTT assay. First, cells were plated on a 96-well plate at a density of 5×10^3 cells/well, treated with the drug, and then cultured for 24, 48, and 72 hours. Thereafter, each well was treated with 5 mg/ml of MTT (AMRESCO), and the cells were cultured at 37° C. for 4 hours. Each well was treated with DMSO ([…]) to dissolve a formazan salt, and the amount of the formazan salt was determined by measuring an OD value at 540 nm using a microplate reader (Tecan Austria GmbH, Austria). […]
After 24, 48, and 72 hours when the MCF7 and MCF7/ADR cells were treated with doxorubicin (0, 1, 2, 10, and 25 μM), the cell viabilities were determined.

MCF7/ADR cells [1] = test: qRT-PCR of CSC, resistance and EMT markers after siRNA silencing; type: cell-based, human; details: for mRNA expression of markers (CD44, N-cadherin): FIG. 8B; for mRNA expression of markers (CD44, Integrin-α6, P-gp, Vimentin, N-cadherin, E-cadherin): FIG. 8A
Description: Total RNAs were extracted from the cultured cells using a TRIzoL reagent (Invitrogen), and cDNAs were synthesized using a cDNA synthetic kit (Promega) for reverse transcription-PCR.
In this case, the real-time PCR was performed in a Bio-Rad Real-Time PCR system using a SYBR Green PCR Master mix (Applied Biosystems), and the data was obtained by calculating an average value for separate experiments performed in at least triplicate.
(§1) siRNA transfection was performed using a Neon® Transfection system (Life technologies). After 48 hours, the expression of each gene was analyzed using qRT-PCR.
Therefore, to determine whether EXT1, LDHB, CD109, EFEMP2, RASIP1, and SERPINE1 were associated with the aggressive phenotype of cancer, the mRNA expression levels of cancer stem cell markers (CD44, and Integrin-α6 (ITGA6)), a resistance marker (P-gp), and EMT markers (Vimentin, N-cadherin, and E-cadherin) were determined using qRT-PCR.

MCF7/ADR cells [2] = test: Mammosphere formation assay after siRNA silencing; type: cell-based, human; details: for self-proliferation ability: genes silenced in the resistant cells, summary statement; for number and size of the mammospheres: MCF7/ADR cells, compared to the control, FIG. 10
Description: Since the breast cancer stem cells formed a mass of colonies in the form of floating spheres without attaching to a surface of a plate, the size and number of the masses were observed by a mammosphere formation assay to determine a cancer-stem-cell-specific effect.
Specifically, a single-cell suspension was cultured at a density of 1,000 to 15,000 cells/well (on an ultralow attachment culture plate (Corning CoStar)) using a MammoCult™ Human Medium kit (Stem Cell Technologies), and the spherical cells were counted and observed under a microscope.
as §1
To determine whether the EXT1 and LDHB regulated the self-renewal capacity of CSCs in the MCF7/ADR cells, a mammosphere formation assay was performed.

common cancer cells = test: Cell viability of common cancer cells under gene expression inhibitor; type: cell-based; details: treatment with the gene expression inhibitor; summary statement
[3] = system: PI3K-β-catenin signaling pathway; test: Western blot of PI3K-β-catenin signaling pathway factors after siRNA treatment; type: cell-based, human; details: MCF7/ADR cells treated with siRNA; FIG. 11
Description: (§2) Proteins were electrophoresed on SDS-PAGE, and the separated proteins were transferred to a nitrocellulose membrane (Whatman), and then blocked at room temperature for 15 minutes in a TBS-5% non-fat milk solution supplemented with 0.1% Tween-20. The membrane was cultured overnight with a primary antibody at 4° C., cultured with a horseradish peroxidase-conjugated secondary antibody at room temperature for an hour, and developed using a West Pico chemiluminescent substrate (PIERCE).
(§3) The primary antibodies used herein were P-gp (Cell Signaling Technology, #12683, 1:1000), p-PI3K (Santa Cruz Biotechnology, sc-12929, 1:500), PI3K (Santa Cruz Biotechnology, sc-1637, 1:500), p-Akt (Cell Signaling Technology, #9271, 1:1000), Akt (Cell Signaling Technology, #9272, 1:1000), β-catenin (Cell Signaling Technology, #9562, 1:1000), and β-actin (Santa Cruz Biotechnology, sc-47778, 1:500).
as §1
Wnt signaling is a major pathway for maintaining stemness, and β-catenin is a particularly important regulator. Also, since the PI3K-Akt signaling pathway is known from previous research to regulate a Wnt-β-catenin signaling pathway, it was determined how the EXT1 and LDHB genes regulated the stemness, and whether the EXT1 and LDHB genes were associated with the pathways.
Therefore, it was confirmed that, when the MCF7/ADR cells were treated with siRNAs against the EXT1, LDHB, CD109, EFEMP2, RASIP1 and SERPINE1 genes (Table 3), the expression of β-catenin decreased, and the expression of phosphorylated PI3K (p-PI3K) in an active form of PI3K, and phosphorylated Akt (p-Akt) in an active form of Akt […] (see FIG. 11).

P-glycoprotein (P-gp) = test: Western blotting of P-gp after siRNA knockdown in MCF7/ADR cells; type: cell-based, human; details: gene silenced with siRNA 20 nM, FIG. 7
Description: as §2, §3, §1
To further evaluate whether the six genes finally screened in Example 4 regulated the drug resistance and the size and number of CSC populations, the genes were knocked down with siRNA, and an expression level of P-gp was determined using western blotting. That is, the MCF7/ADR cells were transfected with siRNA of each gene, and an expression level of P-gp was measured.

MCF7/ADR cells [4] = test: CD44+/CD24− assay (flow cytometric assay) after siRNA silencing; type: cell-based, human; details: for number of the cancer stem cells: genes silenced in the resistant cells, summary statement; for CD44+/CD24− population decreased by: MCF7/ADR cells transfected with siRNA, FIG. 9A
Description: To detect cancer stem cells (CSCs) in the MCF7 and MCF7/ADR cells, a breast cancer stem cell surface antigen, CD44+/CD24−, was assayed.
Specifically, the 1×10^6 cells were labeled with anti-human CD44-APC and CD24-PE (BD biosciences). In this case, the antibody was diluted with a 5% BSA solution. The cells were cultured at room temperature for 25 minutes, washed, re-suspended in […] of 5% BSA, and then detected using BD FACS Aria III.
as §1

MCF7/ADR cells [5] = test: ALDEFLUOR assay (ALDH+ population) after siRNA silencing; type: cell-based, human; details: MCF7/ADR cells transfected with siRNA; FIG. 9B
Description: Specifically, the cells were stained with […] bodipyaminoacetaldehyde (BAAA), and then cultured at 37° C. for 45 minutes. An ALDH1 inhibitor, diethylaminobenzaldehyde (DEAB), was used as the negative control. The 1 ×10^6 stained cells were assayed using BD FACS Aria III. In this case, the positive fluorescent ALDH1-expressed cells (ALDH+) were detected in a green fluorescent channel (520 to 540 nm).
as §1

| Compound | tumor size in xenografted animal (xenografted tumor) | cell viability against doxorubicin (MCF7 and MCF7/ADR cells) | mRNA expression of markers (CD44, N-cadherin) (MCF7/ADR cells [1]) | self-proliferation ability (MCF7/ADR cells [2]) | cell viability of common cancer cells (common cancer cells) | expression of phosphorylated Akt (p-Akt) [3] | expression of phosphorylated PI3K (p-PI3K) [3] | expression of β-catenin [3] | expression of P-glycoprotein (P-glycoprotein (P-gp)) | number of the cancer stem cells (MCF7/ADR cells [4]) | mRNA expression of markers (CD44, Integrin-α6, P-gp, Vimentin, N-cadherin, E-cadherin) (MCF7/ADR cells [1]) | number and size of the mammospheres (MCF7/ADR cells [2]) | CD44+/CD24− population decreased by (MCF7/ADR cells [4]) | ALDH+ population decreased by (MCF7/ADR cells [5]) |
| --- | --- | --- | --- | --- | --- | --- | --- | --- | --- | --- | --- | --- | --- | --- |
| CC1=C2C[C@H]3[C@@H](CC=C4C[C@@H](O)CC[C@@]43C)[C@@H]2CC[C@]12O[C@@H]1C[C@H](C)CN[C@H]1[C@H]2C [cyclopamine] | dramatically contracted |  |  |  |  |  |  |  |  |  |  |  |  |  |
| COc1cccc2c1C(=O)c1c(O)c3c(c(O)c1C2=O)C[C@@](O)(C(=O)CO)C[C@@H]3O[C@H]1C[C@H](N)[C@H](O)[C@H](C)O1 [doxorubicin] |  | higher cell viability |  |  |  |  |  |  |  |  |  |  |  |  |
| siCD109: siRNA against CD109 gene (Bioneer siRNA No. 1027641); sense SEQ ID NO: 5, anti-sense SEQ ID NO: 6 (sense GAGUACUGGAGCGGAUCUA; antisense UAGAUCCGUCCAGUACUC; listed as RNA, chemistry not given here) |  |  | reduced | lowered | no change | increased | increased | decreased | down-regulated | decreased |  |  |  |  |
| siEFEMP2: siRNA against EFEMP2 gene (Bioneer siRNA No. 1045872); sense SEQ ID NO: 7, anti-sense SEQ ID NO: 8 (sense CCCAAACCUGUGUCAACUU; antisense AAGUUGACACAGGUUUGGG; listed as RNA, chemistry not given here) |  |  | reduced | lowered | no change | increased | increased | decreased | down-regulated | decreased |  |  |  |  |
| siEXT1: siRNA against EXT1 gene (Bioneer siRNA No. 1049149); sense SEQ ID NO: 1, anti-sense SEQ ID NO: 2 (sense CACUUCUGGAUAACUCUA; antisense UAGAGUUAUCCCAGAAGUG; listed as RNA, chemistry not given here) |  |  |  | lowered | no change | increased | increased | decreased | down-regulated | decreased | reduced | significantly reduced | approximately 5.09% | approximately 2.1% |
| siLDHB: siRNA against LDHB gene (Bioneer siRNA No. 1083399); sense SEQ ID NO: 3, anti-sense SEQ ID NO: 4 (sense GAUUCAUCCCGUGUCAACA; antisense UGUUGACACGGGAUGAAUC; listed as RNA, chemistry not given here) |  |  |  | lowered | no change | increased | increased | decreased | down-regulated | decreased | reduced | significantly reduced | ~5.52% | ~3.21% |
| siRASIP1: siRNA against RASIP1 gene (Bioneer siRNA No. 1126933); sense SEQ ID NO: 9, anti-sense SEQ ID NO: 10 (sense CUGGAUAGUAACCCUUUCA; antisense UGAAAGGGUUACUAUCCAG; listed as RNA, chemistry not given here) |  |  | reduced | lowered | no change | increased | increased | decreased | down-regulated | decreased |  |  |  |  |
| siSERPINE1: siRNA against SERPINE1 gene (Bioneer siRNA No. 1135690); sense SEQ ID NO: 11, anti-sense SEQ ID NO: 12 (sense CACACAAAAGGUAUGAUCA; antisense UGAUCAUACCUUUUGUGUG; listed as RNA, chemistry not given here) |  |  | reduced | lowered | no change | increased | increased | decreased | down-regulated | decreased |  |  |  |  |
